Data taken from patent US10550143B2, “C,O-spiro aryl glycoside compounds, preparation therefor and use thereof” (SHANGHAI INSTITUTE OF MATERIA MEDICA, CHINESE ACADEMY OF …, priority 2015, dated 2020).
Marks after values point to notes of the source that are not given here.

Tests used:
SD rats = test: Acute administration of A28 at multiple doses, glucose tolerance of SD rats; assay type: in vivo, rat; settings: for AUC0-2 h / Average hypoglycemic rate % (0-2 h) / Blood glucose level 15 min / Blood glucose level 30 min / Blood glucose level 60 min / Blood glucose level 90 min / Blood glucose level 120 min / Blood glucose level 0: SD rats OGTT; for Blood glucose level 0: before sugar
Experimental: (1) 80 SD rats were selected and starved overnight, took water freely, then randomly divided into 10 groups according to body weight and random blood glucose, 8 rats in each group. […] 1 h after oral gavage, 3 g/kg of glucose was orally administered to each group except blank control group, and the blood glucose level was monitored before the sugar administration, and at 15, 30, 60, 90 and 120 minutes after the sugar administration.
Average hypoglycemic rate %=(AUC0-120 min of solvent control group−AUC0-120 min of administration group)/(AUC0-120 min of solvent control group−AUC0-120 min of blank control group)*100%

C57BL/6J mice = test: Acute administration of A28 at multiple doses, urinary glucose of C57BL/6J mice; assay type: in vivo, mouse; settings: for Total sugar excretion / Urine concentration / Urine volume: 24 h urine
Experimental: (1) 90 normal male C57BL/6J mice were selected and randomly divided into 9 groups according to body weight and blood glucose, 10 in each group. […] After oral gavage, the mice were placed in rats (mice) metabolic cages, […] and urine was collected after 24 h, and the urine volume was recorded, then preserved under −20° C. Rats take food and water freely during the experimental period.
(2) Index Determination: Glucose levels in urine are measured by the glucose assay kit.

db/db mice [1] = test: Acute administration at multiple doses, random blood glucose in db/db mice; assay type: in vivo, mouse; settings: for Blood glucose level 0 h: before administration
Experimental: (1) 127 db/db mice (half male and half female) entered the animal laboratory of the institute at 7 weeks of age and were grouped at 10 weeks of age. Random blood glucose and random body weight of all db/db mice were determined at 9:00 am, and then fasted for 6 hours (free drinking). Fasting blood glucose and fasting body weight were determined, and blood was collected (10 μl EDTA+20 μl tail blood, centrifugated to collect supernatant) to determine the insulin content. […] The db/db mice were once orally administered at a dose of 10 mL/kg. Blood glucose levels were measured before administration, and at 1 h, 2 h, 3 h, 4 h, 6 h after administration, and the administration times and body weights were recorded. Mice took food and water freely during the experiment.
Average hypoglycemic rate %=(model control group−administration group)/(model control group−blank control group)*100%

db/db mice [2] = test: Chronic administration, oral glucose tolerance in db/db mice; assay type: in vivo, mouse; settings: for Blood glucose AUC0-2 h / Blood glucose (mmol/L) 0 min / Blood glucose (mmol/L) 15 min / Blood glucose (mmol/L) 30 min / Blood glucose (mmol/L) 60 min / Blood glucose (mmol/L) 90 min / Blood glucose (mmol/L) 120 min / AUC0-2 h reduction rate (%): glucose tolerance, chronic administration; for AUC0-2 h reduction rate (%): vs vehicle
Experimental: Oral gavage administrated, daily dose volume was 10 mL/kg, administered once daily. Administration time was 9: 00-10:00 daily, and the administration period was 5 weeks.
The glucose tolerance of mice of normal control group, model control group, test substance group and positive control group were determined 3 weeks after administration of drug, oral administrated with 1.5 g/kg of glucose, and taken 2 μL of blood on the tail. 4 μL of normal saline was added to 96 well sharp bottom plate to dilute evenly, and then the blood glucose was measured. The blood glucose levels before the sugar administration and at 15, 30, 60, 90 and 120 min after the sugar administration were measured. The true blood glucose level was calculated and the area under the blood glucose curve within 120 min was calculated by the following formula: AUC0-2h (mmol/L·h)=(BG0+BG15)×0.25/2+(BG15+BG30)×0.25/2+(BG30+BG60)×0.5/2+(BG60+[…])×1.0/2 Note: BG0, BG15, BG30, BG60 and BG120 represent the blood glucose levels before the sugar administration, and at 15, 30, 60, and 120 min after sugar administration, respectively. Average hypoglycemic rate %=(solvent control group AUC0-2h−administration group AUC0-2h)/solvent control group AUC0-2h*100%

## CCc1ccc(Cc2cc3c(cc2Cl)CO[C@]32O[C@H](C)[C@@H](O)[C@H](O)[C@H]2O)s1 [Example A28, (1S,3′R,4′S,5′S,6′R)-6′-methyl-6-((5-ethylthienyl)-2-methyl)-5-chloro-3′,4′,5′,6′-tetrahydro-3H-spiro[isobenzofuran-1,2′-pyran]-3′,4′,5′-triol]
SD rats; oral 0.3 mg/kg
  AUC0-2 h: 19.1 ± 1.77 mmol·h/L
  Average hypoglycemic rate % (0-2 h): 10.3%
  Blood glucose level 15 min: 7.6 ± 0.8 mmol/L
  Blood glucose level 30 min: 10.1 ± 1.6 mmol/L
  Blood glucose level 60 min: 11.1 ± 1.3 mmol/L
  Blood glucose level 90 min: 10.5 ± 0.8 mmol/L
  Blood glucose level 120 min: 8.1 ± 1.3 mmol/L
  Blood glucose level 0: 5.0 ± 0.7 mmol/L
SD rats; oral 1 mg/kg
  AUC0-2 h: 15.6 ± 0.9 mmol·h/L
  Average hypoglycemic rate % (0-2 h): 45.0%
  Blood glucose level 15 min: 5.4 ± 0.9 mmol/L
  Blood glucose level 30 min: 6.5 ± 1.1 mmol/L
  Blood glucose level 60 min: 8.4 ± 0.6 mmol/L
  Blood glucose level 90 min: 9.6 ± 1.2 mmol/L
  Blood glucose level 120 min: 9.0 ± 1.3 mmol/L
  Blood glucose level 0: 4.4 ± 0.3 mmol/L
SD rats; oral 3 mg/kg
  AUC0-2 h: 11.6 ± 0.9 mmol·h/L
  Average hypoglycemic rate % (0-2 h): 83.7%
  Blood glucose level 15 min: 3.6 ± 0.5 mmol/L
  Blood glucose level 30 min: 4.3 ± 0.3 mmol/L
  Blood glucose level 60 min: 5.6 ± 0.7 mmol/L
  Blood glucose level 90 min: 7.4 ± 0.6 mmol/L
  Blood glucose level 120 min: 8.4 ± 1.6 mmol/L
  Blood glucose level 0: 3.7 ± 0.4 mmol/L
SD rats; oral 10 mg/kg
  AUC0-2 h: 7.6 ± 0.9 mmol·h/L
  Average hypoglycemic rate % (0-2 h): 122.4%
  Blood glucose level 15 min: 3.0 ± 0.4 mmol/L
  Blood glucose level 30 min: 3.4 ± 0.4 mmol/L
  Blood glucose level 60 min: 4.3 ± 1.8 mmol/L
  Blood glucose level 90 min: 4.2 ± 0.4 mmol/L
  Blood glucose level 120 min: 3.7 ± 0.9 mmol/L
  Blood glucose level 0: 3.1 ± 0.4 mmol/L
SD rats; SD rats, single oral dose
  2 h hypoglycemic effect compared with Dapagliflozin: equivalent 2 h hypoglycemic effect to positive Dapagliflozin
C57BL/6J mice; at the same dose
  urinary exclusion effect compared with Dapagliflozin: equal to or stronger than positive control Dapagliflozin
C57BL/6J mice; oral 0.3 mg/kg
  Total sugar excretion: 10.31 ± 3.26 mg/100 g
  Urine concentration: 7.91 ± 2.50 mmol/L
  Urine volume: 2.1 ± 0.7 mL
C57BL/6J mice; oral 1 mg/kg
  Total sugar excretion: 175.49 ± 55.53 mg/100 g
  Urine concentration: 133.28 ± 42.18 mmol/L
  Urine volume: 1.8 ± 0.6 mL
C57BL/6J mice; oral 3 mg/kg
  Total sugar excretion: 440.02 ± 139.25 mg/100 g
  Urine concentration: 265.71 ± 84.09 mmol/L
  Urine volume: 2.1 ± 0.7 mL
C57BL/6J mice; oral 10 mg/kg
  Total sugar excretion: 712.00 ± 225.32 mg/100 g
  Urine concentration: 344.07 ± 108.88 mmol/L
  Urine volume: 2.5 ± 0.8 mL
C57BL/6J mice; single oral, within 24 hours
  effective dose, urine glucose excretion: ≤ 0.3 mg/kg
db/db mice [1]; single administration, within 6 h
  effective dose, reduction of blood glucose levels: 3 mg/kg
db/db mice [1]; single oral 0.3 mg/kg
  AUC0-6 h: 103.7 ± 7.7 mmol·h/L
  Blood glucose level 1 h: 19.4 ± 1.2 mmol/L
  Blood glucose level 2 h: 18.0 ± 0.9 mmol/L
  Blood glucose level 3 h: 17.2 ± 1.5 mmol/L
  Blood glucose level 4 h: 16.5 ± 1.5 mmol/L
  Blood glucose level 6 h: 15.4 ± 1.7 mmol/L
  Blood glucose level 0 h: 17.9 ± 1.5 mmol/L
db/db mice [1]; single oral 1 mg/kg
  AUC0-6 h: 87.3 ± 4.8 mmol·h/L
  Blood glucose level 1 h: 15.9 ± 0.7 mmol/L
  Blood glucose level 2 h: 13.7 ± 0.6 mmol/L
  Blood glucose level 3 h: 14.6 ± 0.9 mmol/L
  Blood glucose level 4 h: 14.9 ± 1.1 mmol/L
  Blood glucose level 6 h: 12.3 ± 0.9 mmol/L
  Blood glucose level 0 h: 16.8 ± 1.2 mmol/L
db/db mice [1]; single oral 3 mg/kg
  AUC0-6 h: 62.7 ± 3.3 mmol·h/L
  Blood glucose level 1 h: 11.2 ± 1.2 mmol/L
  Blood glucose level 2 h: 9.1 ± 0.5 mmol/L
  Blood glucose level 3 h: 10.2 ± 0.7 mmol/L
  Blood glucose level 4 h: 8.7 ± 0.6 mmol/L
  Blood glucose level 6 h: 9.7 ± 0.8 mmol/L
  Blood glucose level 0 h: 18.7 ± 1.2 mmol/L
db/db mice [1]; single oral 10 mg/kg
  AUC0-6 h: 47.2 ± 1.7 mmol·h/L
  Blood glucose level 1 h: 8.2 ± 0.4 mmol/L
  Blood glucose level 2 h: 6.0 ± 0.6 mmol/L
  Blood glucose level 3 h: 7.1 ± 0.5 mmol/L
  Blood glucose level 4 h: 7.2 ± 0.6 mmol/L
  Blood glucose level 6 h: 6.1 ± 0.4 mmol/L
  Blood glucose level 0 h: 18.3 ± 1.7 mmol/L
db/db mice [2]; after 3 weeks of chronic administration
  improvement of oral glucose tolerance compared with Dapagliflozin: stronger than that of Dapagliflozin of the same dose
db/db mice [2]; dose 0.3 mg/kg
  Blood glucose AUC0-2 h: 6.3 ± 1.3
  Blood glucose (mmol/L) 0 min: 12.3 ± 0.9 mmol/L
  Blood glucose (mmol/L) 15 min: 22.7 ± 1.4 mmol/L
  Blood glucose (mmol/L) 30 min: 21.4 ± 1.1 mmol/L
  Blood glucose (mmol/L) 60 min: 13.5 ± 0.7 mmol/L
  Blood glucose (mmol/L) 90 min: 12.5 ± 0.9* * mmol/L
  Blood glucose (mmol/L) 120 min: 10.9 ± 1.0* * mmol/L
  AUC0-2 h reduction rate (%): 57.2%
db/db mice [2]; dose 1 mg/kg
  Blood glucose AUC0-2 h: 4.7 ± 1.9
  Blood glucose (mmol/L) 0 min: 10.4 ± 1.0 mmol/L
  Blood glucose (mmol/L) 15 min: 16.9 ± 0.8 mmol/L
  Blood glucose (mmol/L) 30 min: 18.7 ± 0.7 mmol/L
  Blood glucose (mmol/L) 60 min: 11.1 ± 0.5 mmol/L
  Blood glucose (mmol/L) 90 min: 10.4 ± 0.6* * mmol/L
  Blood glucose (mmol/L) 120 min: 8.7 ± 0.5 mmol/L
  AUC0-2 h reduction rate (%): 68.2%
db/db mice [2]; dose 3 mg/kg
  Blood glucose AUC0-2 h: 6.1 ± 0.9
  Blood glucose (mmol/L) 0 min: 8.1 ± 1.0 mmol/L
  Blood glucose (mmol/L) 15 min: 16.1 ± 2.4 mmol/L
  Blood glucose (mmol/L) 30 min: 17.4 ± 2.6 mmol/L
  Blood glucose (mmol/L) 60 min: 9.1 ± 1.0 mmol/L
  Blood glucose (mmol/L) 90 min: 8.9 ± 0.8 mmol/L
  Blood glucose (mmol/L) 120 min: 6.9 ± 0.8 mmol/L
  AUC0-2 h reduction rate (%): 58.9%
db/db mice [2]; dose 10 mg/kg
  Blood glucose AUC0-2 h: 2.3 ± 0.8
  Blood glucose (mmol/L) 0 min: 7.2 ± 0.6 mmol/L
  Blood glucose (mmol/L) 15 min: 11.3 ± 0.6 mmol/L
  Blood glucose (mmol/L) 30 min: 12.3 ± 1.0 mmol/L
  Blood glucose (mmol/L) 60 min: 7.1 ± 0.5 mmol/L
  Blood glucose (mmol/L) 90 min: 6.5 ± 0.3 mmol/L
  Blood glucose (mmol/L) 120 min: 6.2 ± 0.5 mmol/L
  AUC0-2 h reduction rate (%): 84.6%
